Tested on: Proteus mirabilis 29906 (Pm) lysate
Experiment: Inhibition of formation of TMA from choline in Proteus mirabilis lysate (d9-choline to d9-TMA, LC-MS/MS)
Assay type: biochemical
Conditions: conversion of choline to TMA; Pm lysate 1.5 mg/mL protein, 50 μM d9-choline chloride, 37° C., two hours; read-out: TMA Inhibition (IC50, mol/L)
Description: EXAMPLE 2 Assay for identifying and characterizing compounds that inhibit the formation of TMA from choline.
This example provides an exemplary assay for identifying and characterizing compounds that inhibit the formation of TMA from choline.
Proteus mirabilis 29906 (Pm) strain was grown aerobically overnight in 500 ml of Nutrient Broth media (3 g/L beef extract, 5 g/L Peptone; Difco #234000) at 37° C. with 250 rpm shaking. The biomass was pelleted by centrifugation at 6000×g for 12 minutes at 4° C. The cell pellet was suspended in 240 mL of ice-cold 1× Phosphate Buffered Saline (Ca^2+ and Mg^2+ free). Ninety micrograms of Lysozyme (Sigma #L6876 Lot #SLBG8654V; Sigma-Aldrich Corp., St. Louis, Mo.) was added and incubated with 320 rpm shaking for 30 minutes at 4° C. Lysis was achieved via French press with a 4° C. prechilled 1″ diameter chamber at 1000 psi (high ratio; internal PSI equivalent ˜16000). The lysate was centrifuged at 6,000×g for 12 minutes at 4° C. to pellet extra debris. A protein concentration of the centrifuged lysate supernatant was determined by a BCA Protein Assay Kit (Pierce #23225; Thermo Fisher Scientific Co., Waltham, Mass.) and protein concentration adjusted to 3 mg/ml with 1× Dulbecco's phosphate buffered saline (DPBS). The centrifuged supernatant lysate was aliquoted into 20 mL volumes and stored frozen at −80° C.
Proteus mirabilis 29906 (Pm) lysate was diluted to 1.5 mg/mL protein with 1×DPBS. Choline chloride (CC) (1M stock) was added to reach a final concentration of 2.5 mM choline chloride. The mixture was mixed using a vortex mixer for approximately 15 seconds and incubated at 37° C. for 22 hours. After incubation, 150 μL of CC-treated Pm lysate was dispensed into a deep-well plate (polypropylene, 2 mL volume, Corning Axygen catalogue #P-DW-20-C). Candidate IC50 compounds from TABLE 1 and vehicle control (respective vehicle control of DMSO or water), or control compounds (IC50 control, 8-Quinolinol hemisulfate salt (Sigma Catalog #55100)) were added at a 1:100 dilution (e.g., 1.5 μL per well). The plates were agitated on a plate shaker for 1 minute. d9-choline chloride (1.5 μL of 5 mM) was added to all wells to reach a final d9-choline chloride concentration of 50 μM.
The plates were again agitated on a plate shaker for 1 minute and incubated at 37° C. for two hours. After incubation, 1.5 μL of formic acid was added to each well (final concentration=1% formic acid). The plates were agitated on a plate shaker for 1 minute and placed on ice. Cell lysate samples were spiked with stable isotope labeled internal standard (22.5 μL of 6 μg/mL of 13C3-trimethylamine (13C3-TMA) was added to each sample), then d9-trimethylamine (d9-TMA), trimethylamine (TMA) and 13C3-TMA were isolated from the lysate after protein precipitation as described below. Acetonitrile acidified with 0.1% formic acid, 600 μL, was added to each sample which was then centrifuged (2,100 g for 20 minutes) to pellet the protein and other precipitates. The supernatant was removed and analyzed as described below. The TMA, d9-TMA and 13C3-TMA in the isolated supernatant samples were subjected to gradient High Performance Liquid Chromatography (HPLC) analysis on a Waters Atlantis HILIC Silica column, from Waters Corp., Milford, Mass., (2.1×50 mm, 3 μm particles) with an Atlantis Silica HILIC Sentry guard column, from Waters Corp., Milford, Mass., (100 Å, 3 μm, 2.1 mm×10 mm), 10 mM ammonium formate in water with 0.1% formic acid as mobile phase A and 0.1% formic acid in acetonitrile as mobile phase B. Detection and quantitation was achieved by tandem mass spectrometry operating under multiple reaction monitoring (MRM) MS/MS conditions (m/z 60.1→44.1 for TMA, m/z 69.1→49.1 for d9-TMA, m/z 63.0→46.1 for 13C3-TMA). TMA and d9-TMA calibration standards (STD), prepared in 80/20/0.1% acetonitrile/Water/Formic Acid, were used to construct a regression curve by plotting the response (peak area TMA/peak area 13C3-TMA) versus concentration for each standard. […]

Work on `CC[N+](CC)(CCCN=C=S)CCOc1ccccc1` [Compound 10, N-(2-Phenoxyethyl)-3-isothiocyanato-N,N-diethylpropan-1-aminium triflate] yielded an IC50 of 29.6 µM.
`C[N+](C)(CCN=C=S)CCOCc1ccccc1` [Compound 11, N-(2-Benzyloxyethyl)-2-isothiocyanato-N,N-dimethylethan-1-aminium triflate] gave an IC50 of 16.1 µM.
`CC[N+](CC)(CCCN=C=S)CCOCc1ccccc1` [Compound 12, N-(2-Benzyloxyethyl)-3-isothiocyanato-N,N-diethylpropan-1-aminium triflate] gave an IC50 of 29.1 µM.
`C[N+](C)(CCN=C=S)CCOc1ccccc1` [Compound 13, N-(2-Phenoxyethyl)-2-isothiocyanato-N,N-dimethylethan-1-aminium triflate] showed an IC50 of 1.33 µM.
With `C[N+](C)(CCBr)CCN=C=S` [Compound 14, N-(2-Bromoethyl)-2-isothiocyanato-N,N-dimethylethan-1-aminium triflate] the IC50 was 24.9 µM.
For `C[N+](C)(CCN=C=S)CC1CO1` (stereo not drawn) [Compound 15, N-(Oxiranylmethyl)-2-isothiocyanato-N,N-dimethylethan-1-aminium triflate], the IC50 was 194 µM.
`CC[N+](CC)(CCCN=C=S)CC1CO1` (stereo not drawn) [Compound 16, N-(Oxiranylmethyl)-3-isothiocyanato-N,N-diethylpropan-1-aminium triflate] was tested, and the IC50 was 39.8 µM.
Compound `COCC[N+](C)(C)CCN=C=S` [Compound 17, N-(2-Methoxyethyl)-2-isothiocyanato-N,N-dimethylethan-1-aminium triflate] has an IC50 of 31.6 µM.
With `CC[N+](CC)(CCCN=C=S)CCOC` [Compound 18, N-(2-Methoxyethyl)-3-isothiocyanato-N,N-diethylpropan-1-aminium triflate] the IC50 was 39.8 µM.
`CCOCC[N+](C)(C)CCN=C=S` [Compound 19, N-(2-Ethoxyethyl)-2-isothiocyanato-N,N-dimethylethan-1-aminium triflate] was tested, and the IC50 was 63.1 µM.
For `CCOCC[N+](CC)(CC)CCCN=C=S` [Compound 20, N-(2-Ethoxyethyl)-3-isothiocyanato-N,N-diethylpropan-1-aminium triflate], the IC50 was 19.9 µM.
`COCCC[N+](C)(C)CCN=C=S` [Compound 21, N-(3-Methoxypropyl)-2-isothiocyanato-N,N-dimethylethan-1-aminium triflate] gave an IC50 of 31.6 µM.
With `CC[N+](CC)(CCCN=C=S)CCCOC` [Compound 22] the IC50 was 31.6 µM.
For `C[N+](C)(CCCl)CCN=C=S` [Compound 23, N-(2-Chloroethyl)-2-isothiocyanato-N,N-dimethylethan-1-aminium triflate], the IC50 was 25.1 µM.
For `C[N+](C)(CCCCl)CCN=C=S` [Compound 24, N-(3-Chloropropyl)-2-isothiocyanato-N,N-dimethylethan-1-aminium triflate], the IC50 was 63.1 µM.
Work on `CC[N+](CC)(CCCl)CCCN=C=S` [Compound 25, N-(2-Chloroethyl)-3-isothiocyanato-N,N-diethylpropan-1-aminium triflate] yielded an IC50 of 19.9 µM.
For `CC[N+](CC)(CCCCl)CCCN=C=S` [Compound 26, N-(3-Chloropropyl)-3-isothiocyanato-N,N-diethylpropan-1-aminium triflate], the IC50 was 50.1 µM.
With `CC[N+](CC)(CCF)CCCN=C=S` [Compound 27, N-(2-Fluoroethyl)-3-isothiocyanato-N,N-diethylpropan-1-aminium triflate] the IC50 was 31.6 µM.
In the case of `S=C=NCC[n+]1ccccc1` [Compound 28, 1-(2-Isothiocyanatoethyl)pyridin-1-ium bromide], the IC50 is reported as 31.6 µM.
`Oc1ccc[n+](CCN=C=S)c1` [Compound 29, 1-(2-Isothiocyanatoethyl)-3-hydroxypyridinium bromide] gave an IC50 of 1260 µM.
Compound `OCc1cccc[n+]1CCN=C=S` [Compound 30, 1-(2-Isothiocyanatoethyl)-(2-hydroxymethyl)pyridinium triflate] has an IC50 of 25.1 µM.
In the case of `OCc1cccc[n+]1CCCN=C=S` [Compound 31, 2-(hydroxymethyl)-1-(3-isothiocyanatopropyl)pyridin-1-ium trifluoromethanesulfonate], the IC50 is reported as 251 µM.
In the case of `Oc1ccc[n+](CCCN=C=S)c1` [Compound 32, 3-hydroxy-1-(3-isothiocyanatopropyl)pyridin-1-ium trifluoromethanesulfonate], the IC50 is reported as 1990 µM.
`OCC[N+]1(CCN=C=S)CCCCC1` [Compound 33, 1-(2-hydroxyethyl)-1-(2-isothiocyanatoethyl)piperidin-1-ium trifluoromethanesulfonate] was tested, and the IC50 was 200 µM.
For `C[N+]1(CCN=C=S)CCCCC1CO` (stereo not drawn) [Compound 34, 2-(hydroxymethyl)-1-(2-isothiocyanatoethyl)-1-methylpiperidin-1-ium trifluoromethanesulfonate], the IC50 was 316 µM.
Compound `OCC[N+]1(CCCN=C=S)CCCCC1` [Compound 35, 1-(2-hydroxyethyl)-1-(3-isothiocyanatopropyl)piperidin-1-ium trifluoromethanesulfonate] has an IC50 of 1260 µM.
Compound `C[N+](C)(CCO)CCCN=C=S` [Compound 36, N-(2-hydroxyethyl)-3-isothiocyanato-N,N-dimethylpropan-1-aminium trifluoromethanesulfonate] has an IC50 of 100 µM.
For `C#CC[N+](C)(C)CCN=C=S` [Compound 37, N-(2-isothiocyanatoethyl)-N,N-dimethylprop-2-yn-1-aminium bromide], the IC50 was 1.99 µM.
In the case of `C=C(C[N+](C)(C)CCN=C=S)C(=O)OC` [Compound 38, N-(2-isothiocyanatoethyl)-2-(methoxycarbonyl)-N,N-dimethylprop-2-en-1-aminium bromide], the IC50 is reported as 14.1 µM.
In the case of `C[N+]1(CCN=C=S)CCC(O)CC1` (stereo not drawn) [Compound 39, 4-hydroxy-1-(2-isothiocyanatoethyl)-1-methylpiperidin-1-ium bromide], the IC50 is reported as 25.9 µM.
`C[N+]1(CCN=C=S)CCOCC1` [Compound 40, 4-Methyl-4-(2-isothiocyanatoethyl)morpholinium trifluoromethanesulfonate] gave an IC50 of 286 µM.
With `C[N+]1(CCN=C=S)CCCCC1` [Compound 41, 1-Methyl-1-(2-isothiocyanatoethyl)piperidium trifluoromethanesulfonate] the IC50 was 31.7 µM.
For `S=C=NCC[N+]12CCC(CC1)CC2` [Compound 42, 1-(2-Isothiocyanatoethyl)quinuclidinium trifluoromethanesulfonate], the IC50 was 12.1 µM.
Work on `C[N+]1(CCCN=C=S)CCOCC1` [Compound 43, 4-Methyl-4-(3-isothiocyanatopropyl)morpholinium trifluoromethanesulfonate] yielded an IC50 of over 1000 µM.
Work on `C[N+]1(CCCN=C=S)CCCCC1` [Compound 44, 1-Methyl-1-(3-isothiocyanatopropyl)piperidinium trifluoromethanesulfonate] yielded an IC50 of over 1000 µM.
With `S=C=NCCC[N+]12CCC(CC1)CC2` [Compound 45, 1-(3-Isothiocyanatopropyl)quinuclidinium trifluoromethanesulfonate] the IC50 was 115 µM.

Source: patent publication US10213407B2, “Compounds and methods for inhibiting production of trimethylamine” (The Procter & Gamble Company, priority 2015, dated 2019)
